Assay results from a melting point compilation (Tetko et al.; mined from patent text by program, amines drawn as free bases though some values may be those of a salt).

melting point	Compound
236 to 237 °C	Cc1cccc2c1nc(-c1cccc(Cl)c1[N+](=O)[O-])n2CC(O)C(C)(C)C (stereo unspecified)
196 °C	CCC1CC(=O)N(CCc2ccc(NC(=O)c3ccno3)cc2)N=C1c1ccc(OC)c(OC)c1 (stereo unspecified)
228 to 230 °C	Cn1cc(Br)nc(Nc2cnn(C3CC3)c2)c1=O
72 to 75 °C	CC(C)c1nsc(N=C(Cl)N(C)C)c1C#N
257 to 258 °C	COc1cc2cc(C(=O)N3CC(CCl)c4c3cc([N+](=O)[O-])c3cc(S(=O)(=O)NCCO)ccc43)[nH]c2c(OC)c1OC (stereo unspecified)
128 to 130 °C	Oc1c(Br)cc(-c2cccc3sc4ccccc4c23)cc1Br
155 to 156 °C	O=C(NC1CCN(CCCC(O)c2ccccc2)CC1)c1ccccc1 (stereo unspecified)
107 °C	CN(C)C(=O)c1c([N+](=O)[O-])cccc1S(=O)(=O)N(C)CCO
220 °C	COc1ccc(C(O)(c2ccc3c(c2)C(c2cccc(Cl)c2)Nc2nnnn2-3)c2cncn2C)cc1 (stereo unspecified)
45 to 48 °C	CS(=O)(=O)C1CCCCC1Br (stereo unspecified)
208 to 212 °C	CC(C)(C)OC(=O)N1CCC(c2ccc3[nH]c(-c4ccc(S(C)(=O)=O)cc4F)nc3c2)CC1
76 to 78 °C	Cc1nc(-c2ccc(C(F)(F)F)cc2)ccc1CO
172 to 175 °C	CC(=O)c1cc(N2CCOCC2)ccc1NC(=O)c1ccc(OCc2ccccc2)cc1
166 to 169 °C	Cc1ccc(-c2cc(CO)nn2-c2ccc(S(N)(=O)=O)cc2)cc1
272 °C	O=c1c2ccc(/C=C/c3ccc(O)cc3)cc2cnn1-c1ccccn1
133 to 135 °C	CCC(=O)OC(CC)c1ccc(Cl)c2nc3n(c12)CCCN3c1ccc(Cl)cc1Cl (stereo unspecified)
117 °C	O=C(NC(Cc1c[nH]c2ccccc12)C(=O)OCc1ccccc1C(F)(F)F)c1ccccc1 (stereo unspecified)
192 to 194 °C	Cc1nc(-c2ccc(S(N)(=O)=O)c(F)c2)c(-c2ccc(-c3cscn3)cc2)o1
43 °C	CCCC(O)(C=Cc1ccccc1)CC(=O)OC (stereo unspecified)
103 °C	O=C(c1cccs1)c1cnn2c(-c3cccc(-c4nnn(CCN5CCOCC5)n4)c3)ccnc12
61 to 63 °C	CCOC(=O)c1cnc2nn(C)cc2c1NCCCN(C)C
153 °C	CN(c1cccc2cc(-c3nccs3)[nH]c12)S(=O)(=O)c1ccsc1C(C)(C)O
135 to 137 °C	COc1ccc(C#N)cc1C(=O)NCCN1CCC(=C(O)c2ccc(F)cc2)CC1
163 to 165 °C	CNC(=O)c1cn(C)nc1[N+](=O)[O-]

melting point	Compound
196 to 198 °C	COc1ccc(C2=NNC(=O)CC2c2ccc(OC)c(F)c2)cc1F (stereo unspecified)
152 °C	Cc1c(CO)nc(-c2ccc(C(F)(F)F)cc2)n1C
192 to 194 °C	CCCc1nc2c(C)ccc(OCc3ccccc3)c2[nH]1
221 to 224 °C	CC(C)Cn1cnc2c(N)nc3ccc(CCc4ccncc4)cc3c21
187 °C	COc1ccc(-c2ccc(N)nn2)cc1OCC(C)C
110 to 112 °C	CCC(=O)C(CC(=O)c1ccccc1)C(O)=S (stereo unspecified)
180 to 181 °C	Cc1nc2ccccc2n1C(C)(C)CO
157 to 159 °C	NC(=O)Nc1c(C(O)(C(F)(F)F)C(F)(F)F)ccc2c1CCCC2
109 to 110 °C	O=C(OC(c1ccccc1)c1ccccc1)C(OC(=S)n1ccnc1)c1ccccc1 (stereo unspecified)
211 to 213 °C	CCCCc1nc2ncncc2n1Cc1ccc2oc(-c3ccccc3-c3nnn[nH]3)c(Br)c2c1
163 °C	C=CCc1cc2c(c(O)c1C)C(=O)c1c(OC)c3c(c(O)c1C2=O)-c1c(cc2cnn(-c4ccccc4)c(=O)c2c1O)CC3
312 to 314 °C	O=C(O)c1ccc(-c2ccc3ncnc(Nc4ccc(OCc5cccc(F)c5)c(Cl)c4)c3c2)s1
108 to 110 °C	CCN(CC)CCNC(=O)c1cc(I)cc2cc3ccccc3nc12
52 °C	CCC(C)(C)C1=C(O)C(=O)c2ccccc2C1=O
261 to 265 °C	COc1ccc(-c2cnc3cc4cnn(C(C)=O)c4cc3n2)cc1F
132 to 134 °C	COC(=O)c1ccc(-c2nc(-c3cccc(OC(F)(F)F)c3)cs2)cc1
247 to 252 °C	COc1cc(Nc2nc3cccc(-c4ccc(S(N)(=O)=O)cc4)c3o2)cc(OC)c1OC
182 to 184 °C	O=C(NC(Cc1c[nH]c2ccccc12)C(=O)NCc1cc(C(F)(F)F)cc(C(F)(F)F)c1)c1ccccc1 (stereo unspecified)
90 to 93 °C	N#CSCSc1nc(Cl)c(Cl)nc1Cl
190 to 192 °C	ClC1=NC2CCCc3c(Cl)ccc(c32)N1 (stereo unspecified)
184 to 185 °C	COc1cc2c(cc1OC)C(Oc1ccccc1)CN(NC(=O)c1cc(Cl)cc(Cl)c1)CC2 (stereo unspecified)
202 to 204 °C	COc1cc(C#N)ccc1-c1cc(-c2cccc(C#N)c2)on1
99 to 100 °C	CC(=O)N(C)C(c1ccc(F)cc1)c1ccc(F)cc1
130 °C	O=C(Nc1ccccc1Cl)Oc1ccc2c(c1)CCCN2Cc1ccccc1

melting point	Compound
177 °C	O=C(NCc1ccc(OC(F)(F)F)cc1)Nc1cccc2[nH]ccc12
291 to 292 °C	O=c1ccc2c(-n3ccnc3)nccc2[nH]1
95 to 96 °C	CCOc1ccc2nc(CCl)cn2c1
84 to 85 °C	C/C(=C\c1ccncc1)c1ccc2c(c1)C(C)(C)CCC2(C)C
142 to 144 °C	CNC(=O)C(Cc1ccc(OC)cc1)NC(=O)C(=CCC(=O)OC)CC(C)C (stereo unspecified)
69 to 74 °C	CCC(=O)OC1=CC(=O)CC(NC(=O)N(C)C)C1 (stereo unspecified)
141 to 143 °C	CN1C(=O)C(Cl)=C(C#N)C1=O
96 to 97 °C	COc1ccc2c(n1)c(CCNC(C)=O)c1n2Cc2ccccc2-1
> 300 °C	O=C(O)c1cc(C#Cc2ccc(C(=O)O)c(C(=O)O)c2)cc(C(=O)O)n1
92 °C	COC(=O)C(c1ccccc1)N1CCN(c2ccc([N+](=O)[O-])cc2)CC1 (stereo unspecified)
264 to 266 °C	O=C1NC(=O)C2(CCCCC2)N1c1cccnc1
144 to 146 °C	CN1C(=O)CCC2(C)c3ccc(CSc4ccccc4)cc3CCC12 (stereo unspecified)
175 to 177 °C	c1ccc(COc2ncnc3nc[nH]c23)cc1
98 to 101 °C	Nc1nc(NCCCCCCNS(=O)(=O)c2cccc3ccccc23)nc2ccccc12
164 to 166 °C	O=C(O)c1c(Oc2ccc(F)cc2)cccc1Oc1ccc2c(c1)OCO2
168 to 169 °C	CC1Cc2ccccc2CN(CCC(N)=O)C1=O (stereo unspecified)
145 °C	Nc1c(Cl)cc(Cl)c(CCC(=O)O)c1Cl
245 to 247 °C	COc1cc(OC)c2c(=O)[nH]c(-c3ccc(O)cc3)cc2c1
165 to 167 °C	Oc1ccc2c(ccc3ccccc32)c1
183 to 188 °C	COc1ccc(C(CC(N)=O)N2C(=O)c3ccccc3C2=O)cc1 (stereo unspecified)
82 to 87 °C	CC(C)C[C@H](NC(=O)OCc1ccccc1)C(=O)N[C@@H](Cc1ccccc1)C(=O)CSCc1ccccn1
209 to 211 °C	O=Cc1c(O)cccc1OCc1cccc(C(=O)O)c1
204 to 205 °C	CN(C)C1CCN(c2cc3ccccc3c(=O)[nH]2)CC1
240 to 242 °C	CC(C)NC(=O)c1c(NC(=O)c2cc(C(F)(F)F)nn2-c2ncccc2Cl)ccc2cc[nH]c12

melting point	Compound
123 to 125 °C	NC(=O)c1c(C(F)(F)F)ccc(Cl)c1F
126 to 128 °C	CCNC(=O)c1cc(N)ccc1Oc1cncc(Cl)c1
212 to 218 °C	Nc1ccc2c(c1)CN(CCC1CCCCN1S(=O)(=O)c1cccc3ccccc13)CC2 (stereo unspecified)
87 to 89 °C	Clc1ccc(Oc2cncc3sccc23)cc1
134 to 136 °C	CCOC1CCC(=O)N1S(=O)(=O)C=Cc1ccc(OC)cc1 (stereo unspecified)
128 to 130 °C	O=C1CC2(CCCC2)CC(=O)N1CCCCN1CCN(c2nsc3ccccc23)CC1
85 to 87 °C	CCOC(=O)C1=C(C)N=C(SCc2ccc(OC)cc2)N(C(=O)OCC)C1c1cccc(C#N)c1 (stereo unspecified)
118 to 119 °C	CCC(=O)N(CC)c1cccc(-c2ccc(Cl)nn2)c1
157 to 159 °C	COc1cc(C(C)C)c2c(c1)S(=O)(=O)N(CBr)C2=O
238 to 239 °C	C=Cn1cc(C(=O)O)c(=O)c2ccc(N3CCN(C)CC3)nc21
219 to 222 °C	COc1ccccc1-c1ccc2c(c1)S(=O)(=O)NC(C1CCCCC1)N2 (stereo unspecified)
149 to 156 °C	CCN(CCCc1c[nH]c2ccc(Cl)cc12)C1COc2c(F)ccc(C(N)=O)c2C1 (stereo unspecified)
236 to 238 °C	CC(C)(C)C(=O)Nc1nc(O)c2c(n1)NCC(CO)C2 (stereo unspecified)
122 to 125 °C	Cc1c(-c2ccc3c(c2)OCO3)n(Cc2ccc(OCCN3CCCCC3)cc2)c2ccc(O)cc12
145 to 147 °C	CCOC(=O)n1c(SCc2nccc(SCCN3CCOCC3)c2C)nc2ccccc21
53 to 55 °C	CCCNc1nc(NCCC)nc(Nc2ccc(OC)c(F)c2)n1
235 to 237 °C	Cc1nc2cc(Nc3nccc(-c4ccc(Cl)nc4)n3)ccc2s1
115 to 117 °C	CCC(=O)N1CCCC2=C1CCc1cc(Cl)ccc12
173 to 175 °C	CC(=O)N1CCC(C(O)(c2ccccc2)c2ccc(F)cc2)CC1 (stereo unspecified)
200 °C	COc1ccc(-c2cncc(OC3SCC(O)C(O)C3O)c2)cc1F (stereo unspecified)
155 to 160 °C	COc1cc2c(cc1OC)Sc1ccccc1C(Cl)C2 (stereo unspecified)

Compound	melting point
NC(=O)NCc1ccc(CNC(=O)[C@@H](CCCNC(N)=N[N+](=O)[O-])NC(=O)Cc2ccc(O)cc2)cc1	168 to 170 °C
O=P(O)(O)C(F)P(=O)(O)O	162 to 163 °C
CC(=O)OC1N=C(c2ccccc2Cl)c2nc(Cl)ccc2-n2c1n[nH]c2=O (stereo unspecified)	232 to 236 °C
CC1(C)CS(=O)(=O)CC(C)(C)N1N=O	184 °C
Cc1ccc2c(c1)c(O)c(C(=O)NC1CCCCC1)c(=O)n2Cc1ccc(F)cc1	156 °C
CCCC1C(O)=CC(=O)N1c1ccc(C#N)c(Cl)c1 (stereo unspecified)	156 to 158 °C
CC(C)(C)P1(=S)CCC1	120 to 121 °C
CCS(=O)CC(O)(C(=O)Nc1ccc(C#N)c(C(F)(F)F)c1)C(F)(F)F (stereo unspecified)	141 to 143 °C
